Assays:
[1] = biological target: endothelin receptors; test: Inhibition of endothelin binding to human placenta membranes; details: 125I-endothelin 20 pM, 20° C. for 2 hours or 4° C. for 24 hours, read-out: IC50 (concentration required to inhibit 50% of the specific binding of 125I-endothelin)
Description: I: Inhibition of endothelin binding to human placenta membranes (see. Life Sci 44:1429 (1989))
Human placenta is homogenized in 5 mM Tris buffer, pH 7.4, which contains 1 mM MgCl2 and 250 mM sucrose. The homogenizate is centrifuged at 4° C. and 3000 g for 15 minutes, the supernatant containing the plasma membrane fraction is centrifuged with 72000 g for 30 minutes and the precipitate is washed with 75 mM Tris buffer, pH 7.4, which contains 25 mM MgCl2. Thereafter, precipitate obtained from, in each case, 10 g of original tissue is suspended in 1 ml of 75 mM Tris buffer, pH 7.4, containing 25 mM MgCl2 and 250 mM sucrose, and freeze-dried at -20° C. in 1 ml aliquots.
For the binding assay, the freeze-dried membrane preparations are thawed and, after centrifugation at 20° C. and 25000 g for 10 minutes, re-suspended in assay buffer (50 mM Tris buffer, pH 7.4, containing 25 mM MnCl2, 1 mM EDTA and 0.5% of bovine serum albumin). […] of this membrane suspension containing […] of protein are incubated with […] of ^125 I-endothelin (specific activity 2200 Ci/mMol) in assay buffer (25000 cpm, final concentration 20 pM) and […] of assay buffer containing varying concentrations of test compound. The incubation is carried out at 20° C. for 2 hours or at 4° C. for 24 hours. The separation of free and membrane-bound radioligands is carried out by filtration over a glass fibre filter.
The inhibitory activity of compounds of formula I determined in this test procedure is given in Table 1 as the IC50, that is, as the concentration […] which is required to inhibit 50% of the specific binding of ^125 I-endothelin.

[2] = tested on: rats; test: Inhibitory activity on vasoconstriction in vivo in rats (renal ischaemia, renal perfusion by Doppler); set-up: species or system rat; details: 45 minutes renal ischaemia; compound given 10 minutes before, 5 mg/kg i.a. or 10 mg/kg i.v.; control tests 43±4% reduction vs preischaemic value
Description: III. The inhibitory activity of the compounds of formula I on vasoconstriction can be observed in vivo in rats in the test procedure described hereinafter:
Rats were anaesthetized with Na thiobutabarbital (100 mg/kg i.p.). A catheter for measuring the systemic arterial blood pressure was placed through the femoral artery and a catheter was placed in the vena cava via the femoral vein for injection of the test compounds. A Doppler sonde was placed around the left renal artery and attached to a Doppler measuring apparatus. A renal ischaemia was produced by pinching off the left renal artery at its point of exit for 45 minutes. 10 minutes prior to the induction of the ischaemia the test compounds were administered intraarterially (i.a.) in dosages of 5 mg/kg or intravenously (i.v.) in dosages of 10 mg/kg. In control tests, the renal perfusion was reduced by 43±4% compared to the preischaemic value.

[3] = tested on: isolated rat aorta rings (endothelin-induced contractions); test: Inhibition of endothelin-induced contractions in isolated rat aorta rings; assay type: cell-based, rat (adult Wistar-Kyoto); details: in the absence of test compounds; read-out: EC50 of endothelin (concentration required for a half-maximum contraction)
Description: II. Inhibition of endothelin-induced contractions in isolated rat aorta rings
Rings with a length of 5 mm were cut out from the thorax aorta of adult Wistar-Kyoto rats. The endothelium was removed by lightly rubbing the internal surface. Each ring was immersed at 37° C. in 10 ml of Krebs-Henseleit solution in an isolated bath while gassing with 95% O2 and 5% CO2. The isometric stretching of the rings was measured. The rings were stretched to a pretension of 3 g. After incubation for 10 minutes with the test compound or vehicle, cumulative dosages of endothelin-1 were added. The activity of the test compound was determined by calculating the dosage ratios, that is, the shift to the right (shift to higher values) of the EC50 of endothelin induced by […] of test compound, with EC50 denoting the endothelin concentration required for a half-maximum contraction. […] The EC50 of endothelin in the absence of test compounds is 0.3 nM.

Molecule	IC50 [1] [nM]	% Decrease in renal perfusion [2] [%]	EC50 [3] [nM]
COc1ccccc1Oc1c(NS(=O)(=O)c2ccc(C(C)C)cc2)ncnc1OCCO [Example 2, N-[6-(hydroxyethoxy)-5-(o-methoxyphenoxy)-4-pyrimidinyl]-p-isopropylbenzenesulfonamide]	100	–	–
COc1cccc(Oc2c(NS(=O)(=O)c3ccc(C(C)(C)C)cc3)ncnc2OCCO)c1 [Example 6, p-t-butyl-N-[6-(2-hydroxyethoxy)-5-(m-methoxyphenoxy)-4-pyrimidinyl]benzenesulphonamide]	200	11.7 ± 4.7	–
COc1ccccc1Oc1c(NS(=O)(=O)c2ccc(C(C)(C)C)cc2)ncnc1OCCO [Example 1, p-t-butyl-N-[6-(2-hydroxyethoxy)-5-(o-methoxyphenoxy)-4-pyrimidinyl]benzenesulfonamide]	115	13.4 ± 5.2	–
endothelin: endothelin-1, agonist added in cumulative dosages to contract rat aorta rings	–	–	0.3

Further lines, with some results ahead:

IC50 [1] [nM]	Molecule	% Decrease in renal perfusion [2] [%]	EC50 [3] [nM]
73	COc1ccccc1Oc1c(NS(=O)(=O)c2ccc(C(C)C)cc2)nc(C)nc1OCCO [Example 24, N-[6-(2-hydroxyethoxy)-5-(o-methoxyphenoxy)-2-methyl-4-pyrimidinyl]-p-isopropylbenzenesulfonamide]	–	–
99	CC(C)(C)c1ccc(S(=O)(=O)Nc2ncnc(OCCO)c2Oc2ccc3c(c2)OCO3)cc1 [Example 27, N-[5-(1,3-benzodioxol-5-yloxy)-6-(2-hydroxyethoxy)-4-pyrimidinyl]-p-tert-butylbenzenesulfonamide]	–	–
50	COc1ccccc1Oc1c(NS(=O)(=O)c2ccc(C(C)C)cc2)nc(C(F)(F)F)nc1OCCO [Example 25]	–	–
125	COc1ccccc1Oc1c(NS(=O)(=O)c2ccc(C(C)C)cc2)nc(-c2ccccc2)nc1OCCO [Example 12, N-[6-(2-hydroxyethoxy)-5-(o-methoxyphenoxy)-2-phenyl-4-pyrimidinyl]-p-isopropylbenzenesulfonamide]	–	–
